DC50 and Dmax data for nine compounds are collected here from patent publication US20260317324A1, “BIFUNCTIONAL COMPOUNDS FOR DEGRADING BRAF VIA UBIQUITIN PROTEOSOME PATHWAY” (Nurix Therapeutics, Inc., priority 2023, published 2026).

Type in all cases: cell-based
For assay [1], the target named is T1, BRAF G469A (Homo sapiens, UniProt P15056, G469A).
T1 construct: Horizon Discovery (HCT-116 BRAF−/− cells); host or cells: HCT-116 BRAF−/− cells, clone 34, lentiviral transduction
Briefly: BRAF HiBiT degradation assay, C-terminal HiBiT-tagged BRAF G469A overexpressed in HCT-116 BRAF−/− cells (clone 34), Nano-Glo HiBiT Lytic assay. The essentials: (§1)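 Luminescence from the lytic HiBiT reagent, read after 10 min at room temperature, measured tagged BRAF remaining in lentivirally transduced HCT-116 BRAF−/− cells. Compounds were tested from 1 μM to 0.01 nM in half-log steps at 0.2% DMSO. DC50 values were fitted at 50% remaining.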

Assay [2] concerns the target T2, BRAF G466V (Homo sapiens, UniProt P15056, G466V).
T2 construct: Horizon Discovery (HCT-116 BRAF−/− cells); host or cells: HCT-116 BRAF−/− cells, clone 8, lentiviral transduction
Briefly: BRAF HiBiT degradation assay, C-terminal HiBiT-tagged BRAF G466V overexpressed in HCT-116 BRAF−/− cells (clone 8), Nano-Glo HiBiT Lytic assay. The essentials:
as §1
A general note: The HiBiT peptide binds its large partner to form an active luciferase.

Assay [3] addresses T3, BRAF D594G (Homo sapiens, UniProt P15056, D594G).
T3 construct: Horizon Discovery (HCT-116 BRAF−/− cells); host or cells: HCT-116 BRAF−/− cells, clone 63, lentiviral transduction
Briefly: BRAF HiBiT degradation assay, C-terminal HiBiT-tagged BRAF D594G overexpressed in HCT-116 BRAF−/− cells (clone 63), Nano-Glo HiBiT Lytic assay. The essentials: as §1

Assay [4] deals with T4, BRAF V600E (Homo sapiens, UniProt P15056, V600E).
T4 construct: endogenous C-terminal HiBiT fusion tag on BRAF V600E allele; endogenous in cells; host or cells: A375 clone 1F10 (CRISPR-Cas9 knock-in of the HiBiT tag; parental A375 from ATCC)
T4 sequence (P15056 whole entry V600E, the tested form may be a part): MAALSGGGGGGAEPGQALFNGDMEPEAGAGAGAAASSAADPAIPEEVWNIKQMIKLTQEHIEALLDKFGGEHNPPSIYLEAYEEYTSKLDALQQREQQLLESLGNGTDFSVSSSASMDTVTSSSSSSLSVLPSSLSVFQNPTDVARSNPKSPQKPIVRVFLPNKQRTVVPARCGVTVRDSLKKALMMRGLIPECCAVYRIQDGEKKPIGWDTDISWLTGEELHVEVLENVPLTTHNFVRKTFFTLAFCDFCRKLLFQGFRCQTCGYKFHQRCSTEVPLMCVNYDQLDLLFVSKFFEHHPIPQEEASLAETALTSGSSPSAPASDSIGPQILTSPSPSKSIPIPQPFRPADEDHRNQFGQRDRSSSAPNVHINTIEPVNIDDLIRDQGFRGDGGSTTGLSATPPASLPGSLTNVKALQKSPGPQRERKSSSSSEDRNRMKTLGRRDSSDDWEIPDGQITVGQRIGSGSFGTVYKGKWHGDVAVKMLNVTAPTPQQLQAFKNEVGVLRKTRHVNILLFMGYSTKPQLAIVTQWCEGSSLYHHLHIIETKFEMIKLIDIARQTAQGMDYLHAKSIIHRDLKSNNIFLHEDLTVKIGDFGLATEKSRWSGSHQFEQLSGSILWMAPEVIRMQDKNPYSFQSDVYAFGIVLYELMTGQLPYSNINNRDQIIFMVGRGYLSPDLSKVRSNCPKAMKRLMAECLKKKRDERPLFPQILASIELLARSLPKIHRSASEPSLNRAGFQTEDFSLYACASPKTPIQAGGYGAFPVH
Briefly: BRAF HiBiT degradation assay, C-terminal HiBiT-tagged BRAF V600E A375 cells (clone 1F10), Nano-Glo HiBiT Lytic assay. Particulars: for Dmax: A-375. The procedure, abridged: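 Endogenous BRAF V600E-HiBiT A375 (1F10), 10,000 cells/well, 24 h preculture; cpd 11-pt, 1 μM–0.01 nM half-log, n=2, 0.2% DMSO; HiBiT lytic detection 10 min RT; DC50 = fitted conc at Y=50; Obs. Dmax vs DMSO.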

Setting [5] is: BRAF G469A (Class 2), HCT-116 BRAF−/− cells, DC50 at 50% degradation.
The mark [6] stands for this setting: BRAF G469A (Class 2), HCT-116 BRAF−/− cells, observed Dmax relative to DMSO control.
Setting [7] is: BRAF G466V (Class 3), HCT-116 BRAF−/− cells, DC50 at 50% degradation.
Where [8] appears, read: BRAF G466V (Class 3), HCT-116 BRAF−/− cells, observed Dmax relative to DMSO control.
Where [9] appears, read: BRAF D594G (Class 3), HCT-116 BRAF−/− cells, DC50 at 50% degradation.
Where [10] appears, read: BRAF D594G (Class 3), HCT-116 BRAF−/− cells, observed Dmax relative to DMSO control.
Setting [11] is: A375 (BRAF V600E, Class 1), DC50 at 50% degradation.
Where [12] appears, read: A375 (BRAF V600E, Class 1), observed Dmax, % protein degraded relative to DMSO control.
Setting [13] is: Class 2, BRAF G469A, DC50 at 50%: fitted conc. at Y=50.
Setting [14] is: HCT-116, Class 2, BRAF G469A, percentage protein degraded at maximal compound effect relative to DMSO.
Where [15] appears, read: BRAF G466V, DC50 at 50%: fitted conc. at Y=50.
Setting [16] is: HCT-116, BRAF G466V, percentage protein degraded at maximal compound effect relative to DMSO.
The mark [17] stands for this setting: BRAF D594G, DC50 at 50%: fitted conc. at Y=50.
Setting [18] is: HCT-116, BRAF D594G, percentage protein degraded at maximal compound effect relative to DMSO.
The mark [19] stands for this setting: A375 (BRAF V600E), DC50 at 50%: fitted conc. at Y=50.
[20] abbreviates: A375 (BRAF V600E), percentage protein degraded at maximal compound effect relative to DMSO.

T3 sequence (P15056 whole entry D594G): as the sequence (P15056 whole entry V600E, the tested form may be a part) above, with D594G, E600V counted along it
T1 sequence (P15056 whole entry G469A): as the sequence (P15056 whole entry V600E, the tested form may be a part) above, with G469A, E600V counted along it
T2 sequence (P15056 whole entry G466V): as the sequence (P15056 whole entry V600E, the tested form may be a part) above, with G466V, E600V counted along it

The DC50 is the concentration giving 50% degradation. Usually Dmax stands for the greatest extent of degradation seen. Lower therefore signals a partial loss of target. Turning to `CCN(C)S(=O)(=O)Nc1cccc(-c2cn(-c3ccc(N4CCN(CC5CCN(c6ccc([C@H]7CCC(=O)NC7=O)cn6)CC5)CC4)cc3F)nc2-c2ccncc2)c1F` [Compound 379, (3R)-3-(6-{4-[(4-{4-[4-(3-{[ethyl(methyl)sulfamoyl]amino}-2-fluorophenyl)-3-(pyridin-4-yl)-1H-pyrazol-1-yl]-3-fluorophenyl}piperazin-1-yl)methyl]piperidin-1-yl}pyridin-3-yl)piperidine-2,6-dione], the DC50 in assay [1] (setting [5]) is more than 500 nM; in assay [2] (setting [7]), 50 to 500 nM; in assay [3] (setting [9]), 50 to 500 nM; in assay [4] (setting [11]), 50 to 500 nM. For the same compound, the Dmax in assay [1] (setting [6]) was 30 to 70%; in assay [2] (setting [8]), 30 to 70%; in assay [3] (setting [10]), 30 to 70%; in assay [4] (setting [12]), more than 70%.

For the compound `CCCS(=O)(=O)Nc1cccc(-c2nc(C3CCN(C(=O)C4CCN(C(=O)C5CCN(c6ccc(C7CCC(=O)NC7=O)cn6)CC5)CC4)CC3)sc2-c2ccnc(NC3CC3)n2)c1F` (racemic) [Compound 198, Rac-N-(3-{5-[2-(cyclopropylamino)pyrimidin-4-yl]-2-{1-[1-(1-{5-[(3R)-2,6-dioxopiperidin-3-yl]pyridin-2-yl}piperidine-4-carbonyl)piperidine-4-carbonyl]piperidin-4-yl}-1,3-thiazol-4-yl}-2-fluorophenyl)propane-1-sulfonamide], the 50% degradation concentration (DC50) in assay [1] (setting [13]) was more than 500 nM; in assay [2] (setting [15]), more than 500 nM; in assay [3] (setting [17]), less than 10 nM; in assay [4] (setting [19]) it was less than 10 nM. The Dmax was 30 to 70% in assay [1] (setting [14]), 30 to 70% in assay [2] (setting [16]), 30 to 70% in assay [3] (setting [18]) and more than 70% in assay [4] (setting [20]).

With `CCCS(=O)(=O)Nc1cccc(-c2nc(C(C)(C)C)sc2-c2ccnc(NC3CC4(CCN(CC5CCN(c6ccc7c(=O)n(C8CCC(=O)NC8=O)ccc7c6)CC5)CC4)C3)n2)c1F` (racemic) [Compound 129, Rac-N-(3-{2-tert-butyl-5-[2-({7-[(1-{2-[(3R)-2,6-dioxopiperidin-3-yl]-1-oxo-1,2-dihydroisoquinolin-6-yl}piperidin-4-yl)methyl]-7-azaspiro[3.5]nonan-2-yl}amino)pyrimidin-4-yl]-1,3-thiazol-4-yl}-2-fluorophenyl)propane-1-sulfonamide], the DC50 in assay [1] (setting [13]) was more than 500 nM; in assay [2] (setting [15]) it was more than 500 nM; in assay [3] (setting [17]), more than 500 nM; in assay [4] (setting [19]) it was 50 to 500 nM. Further, the Dmax was less than 30% in assay [1] (setting [14]), less than 30% in assay [2] (setting [16]), less than 30% in assay [3] (setting [18]) and 30 to 70% in assay [4] (setting [20]).

On to `CCCS(=O)(=O)Nc1cccc(-c2nc(C(C)(C)C)sc2-c2ccnc(Nc3cccc(OC4CCN(CC5(C)CCN(c6ccc(C7CCC(=O)NC7=O)cn6)CC5)CC4)c3)n2)c1F` (racemic) [Compound 68, Rac-N-{3-[2-tert-butyl-5-(2-{[3-({1-[(1-{5-[(3R)-2,6-dioxopiperidin-3-yl]pyridin-2-yl}-4-methylpiperidin-4-yl)methyl]piperidin-4-yl}oxy)phenyl]amino}pyrimidin-4-yl)-1,3-thiazol-4-yl]-2-fluorophenyl}propane-1-sulfonamide], for which the DC50 in assay [1] (setting [13]) is 50 to 500 nM; in assay [2] (setting [15]), 50 to 500 nM; in assay [3] (setting [17]) it was more than 500 nM; in assay [4] (setting [19]), 10 to 50 nM. Further, the Dmax in assay [1] (setting [14]) is 30 to 70%; in assay [2] (setting [16]) it was 30 to 70%; in assay [3] (setting [18]) it was 30 to 70%; in assay [4] (setting [20]), more than 70%.

On to `CCCS(=O)(=O)Nc1cccc(-c2nc(C(C)(C)C)sc2-c2ccnc(Nc3ccc(N4CCN(CC5CCN(c6ccc([C@H]7CCC(=O)NC7=O)cc6)CC5)CC4)cc3)n2)c1F` [Compound 59, N-[3-(2-tert-butyl-5-{2-[(4-{4-[(1-{4-[(3R)-2,6-dioxopiperidin-3-yl]phenyl}piperidin-4-yl)methyl]piperazin-1-yl}phenyl)amino]pyrimidin-4-yl}-1,3-thiazol-4-yl)-2-fluorophenyl]propane-1-sulfonamide], for which the DC50 in assay [1] (setting [13]) is more than 500 nM; in assay [2] (setting [15]), less than 10 nM; in assay [3] (setting [17]), 10 to 50 nM; in assay [4] (setting [19]), 10 to 50 nM. Also, the Dmax is 30 to 70% in assay [1] (setting [14]), more than 70% in assay [2] (setting [16]), 30 to 70% in assay [3] (setting [18]) and more than 70% in assay [4] (setting [20]).

Regarding `CCCS(=O)(=O)Nc1cccc(-c2nc(C(C)(C)C)sc2-c2ccnc(Nc3ccc(C4CCN(CC5CCN(c6ccc(C7CCC(=O)NC7=O)cc6)CC5)CC4)cc3)n2)c1F` (racemic) [Compound 167, Rac-N-[3-(2-tert-butyl-5-{2-[(4-{1-[(1-{4-[(3R)-2,6-dioxopiperidin-3-yl]phenyl}piperidin-4-yl)methyl]piperidin-4-yl}phenyl)amino]pyrimidin-4-yl}-1,3-thiazol-4-yl)-2-fluorophenyl]propane-1-sulfonamide], the DC50 in assay [1] (setting [13]) is more than 500 nM; in assay [2] (setting [15]), more than 500 nM; in assay [3] (setting [17]) it was more than 500 nM; in assay [4] (setting [19]), 10 to 50 nM. Moreover, the Dmax in assay [1] (setting [14]), in assay [2] (setting [16]), in assay [3] (setting [18]) and in assay [4] (setting [20]) was 30 to 70% throughout.

Turning to `CCCS(=O)(=O)Nc1cccc(-c2nc(C3CCC4(CC3)CCN(C(=O)C3CCN(c5cccc6c5n(C)c(=O)n6C5CCC(=O)NC5=O)CC3)CC4)sc2-c2ccnc(N)n2)c1F` (racemic) [Compound 251, Rac-N-{3-[5-(2-aminopyrimidin-4-yl)-2-[3-(1-{1-[(3R)-2,6-dioxopiperidin-3-yl]-3-methyl-2-oxo-2,3-dihydro-1H-1,3-benzodiazol-4-yl}piperidine-4-carbonyl)-3-azaspiro[5.5]undecan-9-yl]-1,3-thiazol-4-yl]-2-fluorophenyl}propane-1-sulfonamide], the DC50 is more than 500 nM in assay [1] (setting [5]), less than 10 nM in assay [2] (setting [7]), less than 10 nM in assay [3] (setting [9]) and less than 10 nM in assay [4] (setting [11]). Further, the Dmax was 30 to 70% in assay [1] (setting [6]), 30 to 70% in assay [2] (setting [8]), 30 to 70% in assay [3] (setting [10]) and more than 70% in assay [4] (setting [12]).

Turning to `CCCS(=O)(=O)Nc1cccc(-c2nc(C3CCC4(CC3)CN(C(=O)C3CCN(c5ccc6c(c5)C(=O)N(C5CCC(=O)NC5=O)C6=O)CC3)C4)sc2-c2ccnc(N)n2)c1F` (racemic) [Compound 244, Rac-N-{3-[5-(2-aminopyrimidin-4-yl)-2-[2-(1-{2-[(3R)-2,6-dioxopiperidin-3-yl]-1,3-dioxo-2,3-dihydro-1H-isoindol-5-yl}piperidine-4-carbonyl)-2-azaspiro[3.5]nonan-7-yl]-1,3-thiazol-4-yl]-2-fluorophenyl}propane-1-sulfonamide], the DC50 in assay [1] (setting [13]) is more than 500 nM; in assay [2] (setting [15]) it was 10 to 50 nM; in assay [3] (setting [17]), less than 10 nM; in assay [4] (setting [19]) it was less than 10 nM. Further, the Dmax in assay [1] (setting [14]) is less than 30%; in assay [2] (setting [16]), 30 to 70%; in assay [3] (setting [18]), 30 to 70%; in assay [4] (setting [20]), more than 70%.

`CCCS(=O)(=O)Nc1cccc(-c2cn(-c3ccc(C4CCN(CC5CCN(c6ccc(C7CCC(=O)NC7=O)c(F)c6)CC5)CC4)cc3)nc2-c2ccncc2)c1F` (racemic) [Compound 23, Rac-N-{3-[1-(4-{1-[(1-{4-[(3R)-2,6-dioxopiperidin-3-yl]-3-fluorophenyl}piperidin-4-yl)methyl]piperidin-4-yl}phenyl)-3-(pyridin-4-yl)-1H-pyrazol-4-yl]-2-fluorophenyl}propane-1-sulfonamide]: the DC50 was more than 500 nM in assay [1] (setting [13]), 10 to 50 nM in assay [2] (setting [15]), more than 500 nM in assay [3] (setting [17]) and 10 to 50 nM in assay [4] (setting [19]). Besides, the Dmax was less than 30% in assay [1] (setting [14]), 30 to 70% in assay [2] (setting [16]), 30 to 70% in assay [3] (setting [18]) and more than 70% in assay [4] (setting [20]).
